Data published in patent US5096924A, “Anticancer antibiotic MI43-37F11 substance” (501 Azidan Hojin Biseibutsu Kagaku Kenkyu Kai, priority 1989, dated 1992).
In brackets after ≈: the same amount, converted by molar mass.

Assays:
[1] = tested on: Ehrlich carcinoma; experiment: Therapeutic treatment of Ehrlich carcinoma-bearing mice by oral administration; type: in vivo, ICR mice; conditions: days 1-9, 14th day; for Weight of tumor (mg ± S.D.): control 1,084 ± 256
Description: On the 15th day after the transplantation of the carcinoma cells, the mass of the tumor (carcinoma) was surgically removed out of each mouse and weighed. The rate of the reduction in the weight of the tumor (carcinoma) obtained from the group of mice treated with MI43-37F11 substance was evaluated in term of the rate (%) of inhibition, with such an assumption that the weight of the tumor obtained from the control group of mice was amounting to 100. In other words, the rate (%) of inhibition to the growth of Ehrlich carcinoma was calculated according to the following equation [formula] where C means the weight of the tumor in the control group of mice (untreated) and T means the weight of the tumor of the treated group of mice.
(b) Another experiments for therapeutic treatment of Ehrlich carcinoma-bearing mice were conducted by oral administration of MI43-37F11 substance. Thus, the cell suspension of Ehrlich ascites carcinoma cells was subcutaneously inoculated at the abdominal region of ICR mice (female, 6-week old, 5 mice in each treated group) so that the number of the carcinoma cells as subcutaneously implanted was 2×10^6 cells per mouse. The MI43-37F11 substance was orally administered to the mice of the treated group at a dosage of 6.3 mg/kg, 12.5 mg/kg, 25 mg/kg, […] or 100 mg/kg once a day during the consecutive 9 days from the 1st day to the 9th day after the implantation of the carcinoma cells. On the 14th day after the implantation of the carcinoma cells, the mass of the tumor (carcinoma) was surgically removed out of each mouse and weighed. The weight of the tumor obtained from the treated group of mice was compared with the weight of the tumor obtained from the control group of mice (untreated), by calculating the rate (%) of inhibition according to the same equation as above.

[2] = Solubility; type: physicochemical
[3] = tested on: human lung cancer LX-1; experiment: Inhibition of proliferation of human lung cancer LX-1 cells (MTT); type: cell-based; conditions: 120 h, human lung cancer LX-1, 37° C, 5 days
Description: A cell suspension containing cells of mouse Leukemia L1210, mouse Leukemia P388, mouse Leukemia EL4, mouse IMC carcinoma or human lung cancer LX-1 cells in a culture medium containing 10% calf serum at a cell density of 1 x 10^5 cells/ml was prepared, and 200 μl-portion of the cell suspension so prepared was placed in a microplate and then added with a solution of MI43-37F11 substance at varying concentrations (dissolved in a mixture of water and dimethylsulfoxide (95:5)). The cell suspension containing the test compound added was subsequently incubated at 37° C for 2 days (but 5 days for the LX-1 cells). […]

[4] = tested on: mouse Leukemia EL4; experiment: Inhibition of proliferation of mouse leukemia EL4 cells; type: cell-based; conditions: 48 h; mouse leukemia EL4, 37° C, 2 days
Description: (§1) A cell suspension containing cells of mouse Leukemia L1210, mouse Leukemia P388, mouse Leukemia EL4, mouse IMC carcinoma or human lung cancer LX-1 cells in a culture medium containing 10% calf serum at a cell density of 1 x 10^5 cells/ml was prepared, and 200 μl-portion of the cell suspension so prepared was placed in a microplate and then added with a solution of MI43-37F11 substance at varying concentrations (dissolved in a mixture of water and dimethylsulfoxide (95:5)). The cell suspension containing the test compound added was subsequently incubated at 37° C for 2 days (but 5 days for the LX-1 cells).
(§2) After the incubation, the number of the cells of the L1210 cells, P388 cells, the EL4 cells and the IMC carcinoma cells in the treated groups was counted by means of Coulter-counter. The control group (untreated) of the cell suspension to which the test compound was not added was incubated in the same way as above and then the number of the cells was similarly counted.
(§3) Rate (%) of inhibition of the cell proliferation of the treated group against that of the control group (untreated) was evaluated. […]

[5] = tested on: mouse Leukemia L1210; experiment: Inhibition of proliferation of mouse leukemia L1210 cells; type: cell-based; conditions: 48 h; mouse leukemia L1210, 37° C, 2 days
Description: as §1, §2, §3

[6] = tested on: Ehrlich carcinoma; experiment: Activity against Ehrlich carcinoma (general statement); type: in vivo; conditions: general statement in words
Description: (a) Experiments for therapeutic treatment of Ehrlich carcinoma-bearing mice were conducted by intraperitoneal injection of the antibiotic MI43-37F11 substance. Thus, a cell suspension of Ehrlich ascites carcinoma cells was subcutaneously inoculated at the abdominal region of ICR mice (female, 6-week old, 4 mice in each treated group) so that the number of the carcinoma cells as subcutaneously transplanted was 2×10^6 cells per mouse. After the transplantation of the carcinoma cells, the antibiotic MI43-37F11 substance was administered by intraperitoneal injection to the mice having the transplanted and firmly grown carcinoma cells, according to the following schedule of administration. […]
On the 15th day after the transplantation of the carcinoma cells, the mass of the tumor (carcinoma) was surgically removed out of each mouse and weighed. The rate of the reduction in the weight of the tumor (carcinoma) obtained from the group of mice treated with MI43-37F11 substance was evaluated in term of the rate (%) of inhibition, with such an assumption that the weight of the tumor obtained from the control group of mice was amounting to 100. […]

For `COc1cc(O)c2c(=O)oc(CO)cc2c1` [MI43-37F11 substance], the “Rate (%) of Inhibition” value ([1]; 6.3 mg/kg/day oral) was 45%, the “Weight of tumor (mg ± S.D.)” value ([1]; 6.3 mg/kg/day oral, *P < 0.05) was 586 ± 282 mg and the “Rate (%) of Inhibition” value ([1]; 12.5 mg/kg/day oral) was 63%. The “Weight of tumor (mg ± S.D.)” value ([1]; 12.5 mg/kg/day oral, **P < 0.01) was 391 ± 266 mg, the “Rate (%) of Inhibition” value ([1]; 25.0 mg/kg/day oral) was 74% and the “Weight of tumor (mg ± S.D.)” value ([1]; 25.0 mg/kg/day oral, ***P < 0.001) was 280 ± 152 mg. For the same compound, the “Rate (%) of Inhibition” value ([1]; 50.0 mg/kg/day oral) was 55%, the “Weight of tumor (mg ± S.D.)” value ([1]; 50.0 mg/kg/day oral, **P < 0.01) was 485 ± 123 mg and the “Rate (%) of Inhibition” value ([1]; 100.0 mg/kg/day oral) was 47%. For the same compound, the “Weight of tumor (mg ± S.D.)” value ([1]; 100.0 mg/kg/day oral, **P < 0.01) was 566 ± 421 mg, the Solubility ([2]; in acetonitrile) was “easily soluble” and the Solubility ([2]; in chloroform) was “soluble”. The Solubility ([2]; in hexane) was “hardly soluble”, the Solubility ([2]; in methanol) was “soluble” and the Solubility ([2]; in water) was “hardly soluble”. It also gave an IC50 [3] of 100 µg/mL (≈ 450 µM), an IC50 [4] of 52 µg/mL (≈ 234 µM) and an IC50 [5] of 50 µg/mL (≈ 225 µM). The “activity against Ehrlich carcinoma” value [6] was “high activity”.
